The structures appear in SMILES notation. Where only a bound is given, the exact number is not on record here.

What all share (format): cell-based
The subject of one series is ypt1^ts cells. Description: Rescue of growth of ypt1^ts mutant yeast (OD600). The note with it: Saccharomyces cerevisiae, read-out: Ypt1-ts MRC (Minimum Rescue Concentration), ypt1^ts cells, 35° C. and 37° C., OD600; multiple results separated by a comma. From the text: The activity of the compounds as modulators of protein trafficking may be measured in the assays described herein that evaluate the ability of a compound to rescue an impairment in protein trafficking. For example, the yeast mutant cell line ypt1^ts can be used to identify compounds that rescue cells from the lethal phenotype of a mutant YPT1 allele (see, e.g., Examples and Schmitt et al. (1988) Cell 53:635-47). The activity may be measured, for example, in a whole yeast cell assay using 384-well screening protocol and an optical density measurement.
The yeast mutant cell line ypt1^ts suppresses, in a temperature dependent fashion, the dominant-lethal phenotype of a mutant YPT1 allele (Schmitt et al. (1988) Cell 53:635-47). The yeast mutant cell line ypt1^ts contains an allele of YPT1 that has two point mutations: one that changes an asparagine at position 121 to a isoleucine (N121I) and another that changes an alanine at position 161 to a valine (A161V). The N121I mutation causes dominant lethality by itself, but lethality is suppressed by the second mutation, resulting in a recessive loss of function phenotype at the restrictive temperatures. ypt1^ts cells grow normally at temperatures up to 25° C., but are growth arrested at 37° C. (Id.).
Compounds were screened to assess their ability to restore growth of ypt1^ts cells. The effect of the compounds was measured on ypt1^ts cells cultured at room temperature (permissive temperature), 37° C. (non-permissive temperature), and 35° C. (semi-permissive temperature).
To determine if the test compounds could rescue the ypt1^ts mutant phenotype, ypt1^ts cells were grown overnight in synthetic complete (SC) media supplemented with 2% glucose at room temperature. Log phase cells were diluted into SC 2% glucose media to an OD600 of 0.003. 100 μL of this culture was then aliquoted into each well of 96-well flat bottom microtiter plates. 1 μL of the test compounds dissolved in DMSO (at a concentration range from 5 mM-0.005 mM) or of DMSO alone was added to each well (50 μM-0.05 μM final concentration in 1% DMSO). Plates were mixed by vortexing and incubated at 35° C. and 37° C. Compound rescue of the ypt1^ts temperature sensitive defect was assessed by measuring the OD600 (optical density at 600 nm; cell growth) of the cultures. Plates incubated at 35° C. were measured at 24 and 40 hours incubation time while plates grown at 37° C. were measured after 40 hours of incubation.
Assays monitoring the rescue of ypt1^ts mutants were performed using a vehicle, a positive control (calcium), and the compounds identified in Table II. Results in Table II corresponding to an MRC (Minimum Rescue Concentration) for ypt1^ts of greater than or equal to 50 micromolar are labeled +; of an MRC for ypt1^ts of 10-50 micromolar are labeled ++; and of an MRC for ypt1^ts of less than 10 micromolar are labeled +++. Multiple results for a particular compound are separated by a comma.

For series [1], the target named is T1, ΔF508 CFTR (Homo sapiens, UniProt P13569, DEL508-508). Description: Stabilization of ΔF508 CFTR in CFBE cells (western blot, densitometry). The note with it: 16 hours at 37° C., 1.25-10 μM (compound 25), 1-10 μM (compound 5). From the text:
In addition, efficacy of a compound can be evaluated before (first in time), concomitantly or subsequently to the above-mentioned test modalities by monitoring, e.g., (i) modulation (e.g., an improvement) of the stability of a trafficking defective protein, (ii) modulation (e.g., an improvement) of proper, physiological trafficking of the trafficking defective protein, or (iii) modulation (e.g., a restoration) in one or more functions of a trafficking defective protein. For example, in some cases, proteins (e.g., protein mutants such as ΔF508 CFTR) are prematurely degraded. Thus, the efficacy of a given compound to modulate protein trafficking can be determined by monitoring the stability of a protein in the presence as compared to the absence of the compound. For example, cells expressing a trafficking defective protein (e.g., expressing endogenously or expressing an exogenous transgene encoding a trafficking defective protein such as ΔF508 CFTR) can be cultured in the presence or absence of a compound for at least 1 hour (e.g., at least 2 hours, at least 4 hours, at least 6 hours, at least 8 hours, at least 12 hours, at least 16 hours, at least 24 hours, at least 36 hours, or at least 48 hours). Cell lysates can be prepared from the different populations of cells, suspended in Laemmli buffer (with or without reducing agent) and subjected to sodium dodecyl sulfate-polyacrylamide gel electrophoresis (SDS-PAGE). Using antibodies that specifically recognize the trafficking defective protein (e.g., CFTR), the amount of the protein in the presence as compared to in the absence of a compound can be determined by western or dot-blotting techniques. […] Where a modified state (e.g., glycosylation or phosphorylation) of a protein is indicative of increased stability, a change in the modified state of a protein can also be used to determine if a compound stabilizes the trafficking defective protein. For example, the amount of glycosylated CFTR (e.g., ΔF508 CFTR) can be assessed in the presence as compared to the absence of a compound.
The compounds can be tested for their ability to stabilize ΔF508 CTFR. CFBE cells, a cell line generated by transformation of cystic fibrosis tracheo-bronchial cells (ΔF508 CTFR homozygous) with SV40 (Bruscia et al. (2002) Gene Ther. 9(11):683-685), can be cultured with 10 μM of the selected compounds, or 10 μM VRT-325 for 16 hours at 37° C. (VRT-325 is described in, e.g., Van Goor et al. (2006) Am. J. Physiol. Lung Cell Mol. Physiol. 290:L1117-L1130). A population of cells can also be cultured with the dimethyl sulfoxide (DMSO) solvent as a control.
Following incubation, cells were lysed, solubilized in Laemmli buffer, and subjected to SDS-PAGE. CFTR protein were visualized by western blotting using an antibody specific for CFTR. Culturing CFBE cells with compound 25 (see Table I for structure) increased the amount of cellular ΔF508 CFTR protein.
The effect of different concentrations of compound 25 on ΔF508 CFTR was tested in a dose response experiment. […] The relative amounts of glysosylated and unglycosylated ΔF508 CFTR protein were visualized by western blotting (FIG. 10A), and the band intensities wer quantitated by scanning and densitometry (FIG. 10B). […] The relative amounts of glysosylated and unglycosylated ΔF508 CFTR protein were visualized by western blotting (FIG. 11A), and the band intensities wer quantitated by scanning and densitometry (FIG. 11B).

For series [2], the target named is T1, ΔF508 CFTR. Put plainly: Corrector activity, YFP halide (iodide) quenching assay in FRT cells expressing ΔF508 CFTR. Further details: expressed in transfected cells; host or cells: Fischer rat thyroid (FRT) cells. The note with it: FRT cells ΔF508 CFTR/YFP, 24 hours with compound at 37° C., forskolin and genistein; read-out: Corrector EC50. The gist of the method: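 FRT cells co-expressing ΔF508 CFTR and halide-sensitive YFP were incubated 24 h at 37° C with compounds, then stimulated 30 min at 37° C in PBS with forskolin and genistein. Endpoint fluorescence after iodide injection was normalized to initial reading; EC50 from 4-parameter fit with bottom constrained to DMSO control.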

Series [3] has as its target T1, ΔF508 CFTR. Description: Potentiator activity, YFP halide (iodide) quenching assay in FRT cells expressing ΔF508 CFTR, 27° C. pre-incubation. On the set-up: expressed in transfected cells; host or cells: Fischer rat thyroid (FRT) cells. The note with it: FRT cells ΔF508 CFTR/YFP, 24 hours at 27° C., compound with forskolin 30 min. The essentials: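 FRT cells stably co-expressing ΔF508 CFTR and halide-sensitive YFP, grown 24 h at 37° C. then 24 h at 27° C. to raise surface CFTR. Compounds in PBS with forskolin, 30 min at 37° C.; iodide injected and YFP quenching (ex 485/em 530 nm) followed. EC50 from normalized endpoint fluorescence.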

The test system of the next series is TS217 cells. Description: Rescue of cell viability from α-synuclein-induced cytotoxicity (cellular ATP, […]). To be noted: tetracycline 5 days, 3 μM concentration, P<0.02. The method, then:
Treatment of TS217 cells with 0.1 μg/mL tetracycline for three to six days induces expression of α-synuclein, which can be cytotoxic. […] After the five day treatment, cells were lysed and assayed for intracellular ATP concentration as a function of cell viability. The relative viability of the cells was assessed by measuring the cellular ATP level in cell lysates using a […]® Plus Bioassay kit (Cambrex, Rockland, Me.). Relative cell viability was calculated as the ratio of induced cells to control cells (cells not treated with tetracycline), as an indication of α-synuclein-induced cytotoxicity. […] By contrast, cells treated with compound 90 at 3 μM concentration reduced the α-synuclein-induced cytotoxicity by 45% (P<0.02) as compared to the control wells lacking the compound. Thus, compound 90 rescues cell viability from α-synuclein-induced cytotoxicity.

T1 sequence (P13569 with tags, fused parts or gaps DEL508-508): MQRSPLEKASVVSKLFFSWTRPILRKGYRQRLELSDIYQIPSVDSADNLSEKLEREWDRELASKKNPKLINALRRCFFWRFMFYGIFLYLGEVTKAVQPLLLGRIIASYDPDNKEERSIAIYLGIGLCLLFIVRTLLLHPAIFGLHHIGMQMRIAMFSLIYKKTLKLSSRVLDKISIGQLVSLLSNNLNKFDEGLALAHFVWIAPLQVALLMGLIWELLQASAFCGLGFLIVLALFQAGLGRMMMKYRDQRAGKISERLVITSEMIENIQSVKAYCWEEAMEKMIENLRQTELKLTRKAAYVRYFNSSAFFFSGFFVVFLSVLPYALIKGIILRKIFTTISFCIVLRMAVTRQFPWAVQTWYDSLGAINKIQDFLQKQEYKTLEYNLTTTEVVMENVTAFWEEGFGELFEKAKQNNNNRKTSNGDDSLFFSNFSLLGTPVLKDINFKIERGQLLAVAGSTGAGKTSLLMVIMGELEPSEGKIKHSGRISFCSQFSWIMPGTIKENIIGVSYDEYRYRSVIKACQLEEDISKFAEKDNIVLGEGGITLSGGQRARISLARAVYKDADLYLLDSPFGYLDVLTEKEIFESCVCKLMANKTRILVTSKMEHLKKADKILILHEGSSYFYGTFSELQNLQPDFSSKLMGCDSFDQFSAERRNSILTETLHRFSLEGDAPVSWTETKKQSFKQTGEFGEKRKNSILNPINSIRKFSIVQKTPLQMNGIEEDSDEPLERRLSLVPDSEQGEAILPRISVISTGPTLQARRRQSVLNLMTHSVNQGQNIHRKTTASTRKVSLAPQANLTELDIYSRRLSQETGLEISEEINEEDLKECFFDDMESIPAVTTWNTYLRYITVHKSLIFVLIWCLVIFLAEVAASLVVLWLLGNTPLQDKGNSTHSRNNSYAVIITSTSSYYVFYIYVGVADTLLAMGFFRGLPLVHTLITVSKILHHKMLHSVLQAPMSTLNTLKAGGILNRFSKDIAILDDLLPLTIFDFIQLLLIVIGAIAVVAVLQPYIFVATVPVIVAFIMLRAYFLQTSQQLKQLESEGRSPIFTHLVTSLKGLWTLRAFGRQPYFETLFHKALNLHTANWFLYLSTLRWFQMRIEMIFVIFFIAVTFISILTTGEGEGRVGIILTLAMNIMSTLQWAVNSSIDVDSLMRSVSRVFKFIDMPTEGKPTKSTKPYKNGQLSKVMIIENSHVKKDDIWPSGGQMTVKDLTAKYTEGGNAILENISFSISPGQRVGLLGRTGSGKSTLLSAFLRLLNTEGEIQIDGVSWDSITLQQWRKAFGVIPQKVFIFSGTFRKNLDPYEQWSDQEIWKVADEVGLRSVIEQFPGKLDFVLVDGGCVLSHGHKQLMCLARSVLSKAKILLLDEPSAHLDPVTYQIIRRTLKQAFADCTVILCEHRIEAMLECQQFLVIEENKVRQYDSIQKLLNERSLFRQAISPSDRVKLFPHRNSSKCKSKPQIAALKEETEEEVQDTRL

Broadly, the EC50 is the concentration giving half of the maximal effect. In the case of `CC(C)(C)n1nc(Cc2cccc3ccccc23)c2c(N)ncnc21` [compound 5], the minimal effective concentration with ypt1^ts cells was under 10 µM. For the same compound, on ΔF508 CFTR [1], the “glycosylated (Band B) ΔF508 CFTR protein vs absence of compound, dose response” value was “increased”. The EC50 on ΔF508 CFTR [2] is over 15 µM.
On to `CC(C)(C)n1nc(Oc2ccccc2)c2c(N)ncnc21` [compound 90, 1-tert-Butyl-3-phenoxy-1H-pyrazolo[3,4-d]pyrimidin-4-ylamine], for which the minimal effective concentration with ypt1^ts cells was over 50 µM. Further, the figures for the EC50 at ΔF508 CFTR [3] and at ΔF508 CFTR [2] were under 2 µM and over 15 µM, respectively. In the series with TS217 cells, the “reduction of α-synuclein-induced cytotoxicity compared to control wells” value is given as 45%.
In the case of `COC(=O)c1cnc2c(c(-c3ccc(C)cc3)nn2C(C)(C)C)c1N` [compound 46], the minimal effective concentration with ypt1^ts cells is over 50 µM. Besides, the EC50 at ΔF508 CFTR [3] and at ΔF508 CFTR [2] was over 15 µM throughout.
With `CCn1cc(-c2ccc(C)cc2)c2c(N)ncnc21` [compound 86], the minimal effective concentration in the series on ypt1^ts cells lay in the range of 10 to 50 µM. Besides, the EC50 lay in the range of 5 to 10 µM at ΔF508 CFTR [3] and 2 to 5 µM on ΔF508 CFTR [2].

Source of the values: patent US20100331297A1, “MODULATION OF PROTEIN TRAFFICKING” (FOLDRX PHARMACEUTICALS, INC., priority 2007, published 2010).
